The values below come from patent publication US8268884B2, “Derivatives of substituted tartaric acid and usage for preparing beta-secretase inhibitors” (Institute of Pharmacology and Toxicology Academy of …, priority 2006, dated 2012).

A word on the melting point: it is the temperature of the solid-liquid transition.

The structures appear in SMILES notation.

The target of one data set is BACE1 (Homo sapiens, UniProt P56817). In words: Determination of BACE1-inhibiting activity (fluorescence substrate cleavage). It counts as biochemical. As to conditions: compound 100 μM; BACE1 1.0 U/ml; substrate 750 nM Rh-EVNLDAEFK-Quencher; sodium acetate buffer pH 4.5; 25° C., 60 minutes; read-out: Inhibitory rate (%). Here is the method: Determination of BACE1-Inhibiting Activity
BACE1, sequence (P56817 46-501): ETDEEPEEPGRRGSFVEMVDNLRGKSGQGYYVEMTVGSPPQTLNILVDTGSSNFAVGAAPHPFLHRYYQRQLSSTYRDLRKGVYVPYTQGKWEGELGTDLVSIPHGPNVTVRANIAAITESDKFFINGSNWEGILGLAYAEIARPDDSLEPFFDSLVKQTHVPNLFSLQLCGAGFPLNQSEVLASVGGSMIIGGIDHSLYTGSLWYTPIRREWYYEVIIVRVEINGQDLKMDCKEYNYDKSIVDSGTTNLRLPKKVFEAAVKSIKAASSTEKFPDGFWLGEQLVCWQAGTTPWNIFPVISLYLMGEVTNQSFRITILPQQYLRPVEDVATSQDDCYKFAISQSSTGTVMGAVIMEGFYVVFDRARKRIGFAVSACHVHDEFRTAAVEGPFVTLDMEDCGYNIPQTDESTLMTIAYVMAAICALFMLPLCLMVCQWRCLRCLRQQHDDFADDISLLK
A sodium acetate analytical buffer solution ([…], pH 4.5) containing BACE1 (1.0 U/ml), a substrate of BACE1 (750 nM Rh-EVNLDAEFK-Quencher), a compound of the present invention (100 μM) was incubated at 25° C. for 60 minutes. The fluorescence intensity was determined by using a TECANGENios fluorimeter with a slit width of 10 nm, an excitation wavelength of 535 nm and an emission wavelength of 585 nm. Inhibitory rate(%)={1−[(S−S0)/(C−C0)]}*100%
C: the fluorescence intensity of the control (BACE1, substrate and analytical buffer solution) as determined after incubating for 60 minutes.
C0: the fluorescence intensity of the control (BACE1, substrate and analytical buffer solution) as determined after incubating for 0 minute.
S: the fluorescence intensity of the sample (BACE1, substrate, compound of the present invention and analytical buffer solution) as determined after incubating for 60 minutes.
S0: the fluorescence intensity of the sample (BACE1, substrate, compound of the present invention and analytical buffer solution) as determined after incubating for 0 minute.
As to `COC(=O)CCCNC(=O)[C@H](OC(C)=O)[C@@H](OC(C)=O)C(=O)Nc1ccc(Oc2ccccc2)cc1` [Example 3, methyl L-(2R,3R)-4-[2,3-diacetoxy-3-(4-phenoxy-phenylcarbamoyl)-propionylamino]-butyrate], the inhibition at 100 µM turned out to be 39%.

For `O=C(O)CCCNC(=O)[C@H](O)[C@@H](O)C(=O)NCc1ccccc1` [Example 14, L-(2R,3R)-4-(3-benzylcarbamoyl-2,3-dihydroxy-propionylamino)-butyric acid], the inhibition at 100 µM was 22.5%.

On to `COC(=O)c1cc(NC(=O)[C@H](O)[C@@H](O)C(=O)NCc2ccccc2)cc(C(=O)OC)c1` [Example 16, dimethyl L-(2R,3R)-5-(3-benzylcarbamoyl-2,3-dihydroxy-propionylamino)-isophthalate], for which the inhibition at 100 µM was 26.5%.

With `COC(=O)c1ccc(CNC(=O)[C@H](O)[C@@H](O)C(=O)Nc2ccc3ccccc3c2)cc1` [Example 17, methyl L-(2R,3R)-4-{[2,3-dihydroxy-3-(naphthyl-2-carbamoyl)-propionylamino]methyl}-benzoate], the inhibition at 100 µM is 45.3%.

On to `COC(=O)C1CCC(CNC(=O)[C@H](O)[C@@H](O)C(=O)Nc2ccc3ccccc3c2)CC1` (stereo partly drawn) [Example 18, methyl L-(2R,3R)-4-{[2,3-dihydroxy-3-(naphthyl-2-carbamoyl)-propionylamino]methyl}-cyclohexanecarboxylate], for which the inhibition at 100 µM was 22.3%.

As for `COC(=O)[C@H](Cc1ccccc1)NC(=O)[C@H](O)[C@@H](O)C(=O)Nc1ccc2ccccc2c1` [Example 19, methyl L-(2R,3R)-2-[2,3-dihydroxy-3-(naphthalen-2-ylcarbamoyl)-propionylamino]-3-phenyl-propionate], the inhibition at 100 µM was determined as 35%.

Tested on in the next data set: not given
Assay: not given
Settings: not given
In turn, `COC(=O)c1ccc(CNC(=O)[C@H](O)[C@@H](O)C(=O)NCc2ccccc2)cc1` [Example 8, methyl L-(2R,3R)-4-[(3-benzylcarbamoyl-2,3-dihydroxy-propionylamino)methyl]-benzoate] registered a melting point of 205 to 206 °C.

Take `O=C(O)[C@H](Cc1ccccc1)NC(=O)[C@H](O)[C@@H](O)C(=O)NCc1ccccc1` [Example 10, L-(2R,3R)-2-(3-benzylcarbamoyl-2,3-dihydroxy-propionylamino)-3-phenyl-propionic acid]: the melting point lay within 236 to 238 °C.

In turn, `COC(=O)C1CCC(CNC(=O)[C@H](O)[C@@H](O)C(=O)NCc2ccccc2)CC1` (stereo partly drawn) [Example 11, methyl L-(2R,3R)-4-(3-benzylcarbamoyl-2,3-dihydroxy-propionylaminomethyl)-cyclohexanecarboxylate] registered a melting point of 153 to 154 °C.

`O=C(O)c1ccc(CNC(=O)[C@H](O)[C@@H](O)C(=O)NCc2ccccc2)cc1` [Example 12, L-(2R,3R)-4-[(3-benzylcarbamoyl-2,3-dihydroxy-propionylamino)methyl]-benzoic acid] displayed a melting point of 177 to 178 °C.

As to `COC(=O)CCCNC(=O)[C@H](O)[C@@H](O)C(=O)NCc1ccccc1` [Example 13, methyl L-(2R,3R)-4-(3-benzylcarbamoyl-2,3-dihydroxy-propionylamino)-butyrate], the melting point was 142 to 145 °C.

`O=C(O)CCCNC(=O)[C@H](O)[C@@H](O)C(=O)NCc1ccccc1` [Example 14, L-(2R,3R)-4-(3-benzylcarbamoyl-2,3-dihydroxy-propionylamino)-butyric acid] yielded a melting point of 169 to 170 °C.

In turn, `O=C(O)C1CCC(CNC(=O)[C@H](O)[C@@H](O)C(=O)NCc2ccccc2)CC1` (stereo partly drawn) [Example 15, L-(2R,3R)-4-[(3-benzylcarbamoyl-2,3-dihydroxy-propionylamino)methyl]-cyclohexanecarboxylic acid] returned a melting point of 236 to 238 °C.
